According to PubChem BioAssay AID248 (DTP/NCI, 2004):
Where “and” joins values, the source holds several entries; their conditions need not be identical. Equal entries are not always repeated. Inconclusive results and toxic doses are left out. Rule as the data show it: active = T/C of 150% or more; inactive = T/C below 125%.

System: L1210 leukemia ip in BDF1 mice, survival T/C
Assay: NCI In Vivo Anticancer Drug Screen. Data for tumor model L1210 Leukemia (intraperitoneal) in B6D2F1 (BDF1) mice
Details: endpoint: mean survival time, higher = longer survival
Summary of the method: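 Transplanted-tumor mice were given test agent; controls received vehicle only. Survival readings from the two groups were divided (treated over control).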

[1] = dose: 100.0 mg/kg/injection, schedule: Q04DX003 (ip), vehicle: saline with Tween-80
[2] = dose: 200.0 mg/kg/injection, schedule: Q04DX003 (ip), vehicle: saline with Tween-80
[3] = dose: 400.0 mg/kg/injection, schedule: Q04DX003 (ip), vehicle: saline with Tween-80
[4] = dose: 100.0 mg/kg/injection, schedule: Q01DX001 (ip), vehicle: saline with Tween-80
[5] = dose: 100.0 mg/kg/injection, schedule: Q01DX009 (ip), vehicle: Klucel (hydroxypropylcellulose) (HPC)
[6] = dose: 200.0 mg/kg/injection, schedule: Q01DX009 (ip), vehicle: Klucel (hydroxypropylcellulose) (HPC)
[7] = dose: 400.0 mg/kg/injection, schedule: Q01DX009 (ip), vehicle: Klucel (hydroxypropylcellulose) (HPC)
[8] = dose: 100.0 mg/kg/injection, schedule: Q04DX002 (ip), vehicle: saline
[9] = dose: 200.0 mg/kg/injection, schedule: Q04DX002 (ip), vehicle: saline
[10] = dose: 400.0 mg/kg/injection, schedule: Q04DX002 (ip), vehicle: saline
[11] = dose: 100.0 mg/kg/injection, schedule: Q01DX001 (ip), vehicle: carboxymethylcellulose (CMC)
[12] = dose: 200.0 mg/kg/injection, schedule: Q01DX001 (ip), vehicle: carboxymethylcellulose (CMC)
[13] = dose: 400.0 mg/kg/injection, schedule: Q01DX001 (ip), vehicle: carboxymethylcellulose (CMC)
[14] = dose: 100.0 mg/kg/injection, schedule: Q04DX003 (ip), vehicle: Klucel (hydroxypropylcellulose) (HPC)
[15] = dose: 200.0 mg/kg/injection, schedule: Q04DX003 (ip), vehicle: Klucel (hydroxypropylcellulose) (HPC)
[16] = dose: 400.0 mg/kg/injection, schedule: Q04DX003 (ip), vehicle: Klucel (hydroxypropylcellulose) (HPC)
[17] = dose: 100.0 mg/kg/injection, schedule: Q01DX001 (ip), vehicle: Klucel (hydroxypropylcellulose) (HPC)
[18] = dose: 200.0 mg/kg/injection, schedule: Q01DX001 (ip), vehicle: Klucel (hydroxypropylcellulose) (HPC)
[19] = dose: 400.0 mg/kg/injection, schedule: Q01DX001 (ip), vehicle: Klucel (hydroxypropylcellulose) (HPC)

Measured: T/C

Cc1cnc(Br)c(Br)c1
inactive: [1] 102 % of control | [2] 100 % of control | [3] 102 % of control

C/C=C/Sc1ccccc1
inactive: dose: 75.0 mg/kg/injection, schedule: Q01DX001 (ip), vehicle: carboxymethylcellulose (CMC) 95 % of control | dose: 150.0 mg/kg/injection, schedule: Q01DX001 (ip), vehicle: carboxymethylcellulose (CMC) 101 % of control | dose: 300.0 mg/kg/injection, schedule: Q01DX001 (ip), vehicle: carboxymethylcellulose (CMC) 98 % of control

CC(=O)OCC1OC(Sc2ccc([N+](=O)[O-])cc2[N+](=O)[O-])C(OC(C)=O)C(OC(C)=O)C1OC(C)=O (configuration not stated)
inactive: [4] 96 % of control | dose: 200.0 mg/kg/injection, schedule: Q01DX001 (ip), vehicle: saline with Tween-80 101 % of control | dose: 400.0 mg/kg/injection, schedule: Q01DX001 (ip), vehicle: saline with Tween-80 93 % of control

CCCCN(CCCC)C(=S)S[As](SC(=S)N(CCCC)CCCC)SC(=S)N(CCCC)CCCC
inactive: [5] 97 % of control | [6] 90 % of control | [7] 97 % of control

CCCCCCCCOC(=O)CCCc1ccc(N(CCCl)CCCl)cc1
inactive: [8] 104 % of control | [9] 108 % of control | [10] 111 % of control

Cc1nc(N)[nH]c(=O)c1CCCNc1ccc(F)cc1
inactive: dose: 25.0 mg/kg/injection, schedule: Q01DX001 (ip), vehicle: saline with Tween-80 95 % of control | dose: 50.0 mg/kg/injection, schedule: Q01DX001 (ip), vehicle: saline with Tween-80 93 % of control | [4] 92 % of control

CCCCCC(=O)Nc1cccc(O)c1
inactive: [1] 92 % of control | [2] 98 % of control

Cc1cnc(SCc2ccc(F)cc2)nc1N(C)C
inactive: dose: 100.0 mg/kg/injection, schedule: Q01DX Z (ip), vehicle: methylcellulose (MC) 88 % of control

Cc1nc(N)nc(N)c1-c1ccc([N+](=O)[O-])cc1
inactive: [11] 95 % of control | [12] 95 % of control

CCCCCCNC1=C(c2ccccc2)C(=O)C(NCCCCCC)=C(c2ccccc2)C1=O
inactive: [11] 88 % of control | [12] 94 % of control | [13] 96 % of control

CCOCCOCCOC(C)Oc1ccc(C(C)C)cc1 (configuration not stated)
inactive: [8] 93 % of control | [9] 104 % of control | [10] 101 % of control

CCOC(=O)CC(=O)C1CCC2C3CC=C4CC(OC(=O)OCC)CCC4(C)C3CCC12C (configuration not stated)
inactive: dose: 25.0 mg/kg/injection, schedule: Q01DX001 (sc), vehicle: olive oil, sesame oil, peanut oil 104 % of control | dose: 50.0 mg/kg/injection, schedule: Q01DX001 (sc), vehicle: olive oil, sesame oil, peanut oil 107 % of control | dose: 100.0 mg/kg/injection, schedule: Q01DX001 (sc), vehicle: olive oil, sesame oil, peanut oil 93 % of control

CC(O)C(O)C(O)C(/C=N\NC(N)=S)=N/NC(N)=S (configuration not stated)
inactive: dose: 100.0 mg/kg/injection, schedule: Q01DX009 (ip), vehicle: saline 95 % of control | dose: 100.0 mg/kg/injection, schedule: Q04DX003 (ip), vehicle: saline 104 % of control | dose: 200.0 mg/kg/injection, schedule: Q01DX009 (ip), vehicle: saline 89 % of control | dose: 200.0 mg/kg/injection, schedule: Q04DX003 (ip), vehicle: saline 105 % of control | dose: 400.0 mg/kg/injection, schedule: Q01DX009 (ip), vehicle: saline 90 % of control | dose: 400.0 mg/kg/injection, schedule: Q04DX003 (ip), vehicle: saline 94 % of control

CCOC(=O)C(C(=O)OCC)c1cc(Cl)nnc1Cl
inactive: [8] 91 % of control | [9] 91 % of control

CCOc1cc(N)ccc1C
inactive: [5] 97 % of control | [14] 108 % of control | [6] 99 % of control | [15] 97 % of control | [16] 101 % of control

O=C(Oc1ccccc1)c1cc(Br)c2ccccc2c1O
inactive: dose: 100.0 mg/kg/injection, schedule: Q01DX009 (ip), vehicle: saline with Tween-80 96 % of control | [14] 89 % of control | dose: 200.0 mg/kg/injection, schedule: Q01DX009 (ip), vehicle: saline with Tween-80 95 % of control | [15] 97 % of control | dose: 400.0 mg/kg/injection, schedule: Q01DX009 (ip), vehicle: saline with Tween-80 93 % of control | [16] 87 % of control

CC(=O)Oc1c2cccc3c(=O)c4cccc5c4-c(c23)c2c1cccc2c5=O
inactive: [1] 95 % of control | [2] 95 % of control | [3] 101 % of control

CCNC(=S)S.[Zn+2]
inactive: dose: 1.0 mg/kg/injection, schedule: Q01DX015 (ip), vehicle: saline 102 % of control | dose: 2.0 mg/kg/injection, schedule: Q01DX015 (ip), vehicle: saline 100 % of control | dose: 4.0 mg/kg/injection, schedule: Q01DX015 (ip), vehicle: saline 102 % of control | dose: 8.0 mg/kg/injection, schedule: Q01DX015 (ip), vehicle: saline 108 % of control | dose: 10.0 mg/kg/injection, schedule: Q01DX001 (ip), vehicle: carboxymethylcellulose (CMC) 95 % of control | dose: 20.0 mg/kg/injection, schedule: Q01DX001 (ip), vehicle: carboxymethylcellulose (CMC) 97 % of control | dose: 40.0 mg/kg/injection, schedule: Q01DX001 (ip), vehicle: carboxymethylcellulose (CMC) 95 % of control | dose: 80.0 mg/kg/injection, schedule: Q01DX001 (ip), vehicle: carboxymethylcellulose (CMC) 97 % of control

O=C(CC(c1ccccc1)C(C(CC(=O)c1ccccc1)c1ccccc1)[N+](=O)[O-])c1ccccc1 (configuration not stated)
inactive: [11] 92 % of control | [14] 87 % of control | [12] 95 % of control | [15] 89 % of control | [13] 92 % of control | [16] 86 % of control

Nc1c(C(=O)O)cc(Br)c2c1C(=O)c1ccccc1C2=O
inactive: [14] 97 % of control | [15] 95 % of control

CCC/C=C/C(C)C
inactive: [5] 105 % of control | [14] 93 % of control | [6] 92 % of control | [15] 97 % of control | [7] 95 % of control | [16] 101 % of control

O=C(Nc1cc(C(F)(F)F)ccc1Cl)Oc1ccc(F)cc1Cl
inactive: [5] 97 % of control and 101 % of control | dose: 100.0 mg/kg/injection, schedule: Q04DX002 (ip), vehicle: Klucel (hydroxypropylcellulose) (HPC) 95 % of control and 100 % of control | [6] 101 % of control and 108 % of control | dose: 200.0 mg/kg/injection, schedule: Q04DX002 (ip), vehicle: Klucel (hydroxypropylcellulose) (HPC) 100 % of control and 104 % of control | [7] 108 % of control and 89 % of control | dose: 400.0 mg/kg/injection, schedule: Q04DX002 (ip), vehicle: Klucel (hydroxypropylcellulose) (HPC) 103 % of control and 110 % of control

CCCC(CCC)NCCOC(=O)C(CC)c1ccccc1 (configuration not stated)
inactive: dose: 75.0 mg/kg/injection, schedule: Q01DX001 (ip), vehicle: saline 94 % of control

CC(C)CCOc1ccc(C(N)=S)c2ccccc12
inactive: [17] 112 % of control | [18] 112 % of control | [19] 102 % of control

COP(=O)(C(OC(=O)C(C)(C)C)=C(C)C)N(C)C (configuration not stated)
inactive: [1] 97 % of control | [2] 96 % of control | [3] 96 % of control

CCCCB1OCCCO1
inactive: [17] 98 % of control | [18] 88 % of control | [19] 92 % of control

O=C(N/N=C/c1ccccc1)NNCc1ccccc1
inactive: dose: 100.0 mg/kg/injection, schedule: Q01DX001 (ip), vehicle: other 97 % of control | dose: 100.0 mg/kg/injection, schedule: Q04DX003 (ip), vehicle: other 111 % of control | dose: 200.0 mg/kg/injection, schedule: Q01DX001 (ip), vehicle: other 97 % of control | dose: 200.0 mg/kg/injection, schedule: Q04DX003 (ip), vehicle: other 101 % of control | dose: 400.0 mg/kg/injection, schedule: Q01DX001 (ip), vehicle: other 104 % of control | dose: 400.0 mg/kg/injection, schedule: Q04DX003 (ip), vehicle: other 86 % of control

C=CCOCC(O)COP(=O)(O)O (configuration not stated) (tested in a mixture with another compound)
inactive: dose: 50.0 mg/kg/injection, schedule: Q01DX001 (ip), vehicle: saline 111 % of control and 107 % of control and 97 % of control | dose: 100.0 mg/kg/injection, schedule: Q01DX001 (ip), vehicle: saline 100 % of control and 107 % of control and 103 % of control | dose: 200.0 mg/kg/injection, schedule: Q01DX001 (ip), vehicle: saline 100 % of control and 97 % of control and 103 % of control | dose: 400.0 mg/kg/injection, schedule: Q01DX001 (ip), vehicle: saline 94 % of control and 103 % of control
